# Measurements: patent publication US20120064135A1, “Benzoyl Peroxide Composition, Methods for Making Same, and Pharmaceutical or Cosmetic Formulations Comprising Same, and Uses Thereof” (Norac Pharma, priority 2010, published 2012)
# Experiments:
# [1] = Stability of clindamycin hydrochloride mixed with BP-CB or BPO, stored in vials at 30° C., HPLC peak area; format: physicochemical; conditions: after 216 h at 30° C.
# Protocol: The stability of the benzoyl peroxide (BP-CB) formulation of the present invention is compared with benzoyl peroxide (BPO) in non-invention drug formulations. In one study, clindamycin hydrochloride is used as the API. Clindamycin hydrochloride and BP-CB or BPO are placed in vials and stored at 30° C. The vials are analyzed by HPLC and the area from the clindamycin hydrochloride peak is monitored. […] These values are in comparison to the area from the T0 results. BPO Study—Into clear one dram vials is placed hydrous benzoyl peroxide (26 mg, 75.0% by wt) and clindamycin hydrochloride (20 mg). The contents are mixed thoroughly. Then the vials are stored at 30° C. BP-CB Study—Into clear one dram vials is placed BP-CB (30 mg, 65% BPO by wt) and clindamycin hydrochloride (20 mg). The contents are mixed thoroughly then the vials are stored at 30° C. Analysis—At certain time points, the vials are analyzed by HPLC. Prior to analysis, a mixture of methanol and acetonitrile (10 mL total, 1:1 by volume) is added to dissolve the contents of the vial. The solution is used for HPLC analysis. For T0, a vial is removed and analyzed before the samples are heated to 30° C. • To prepare 1 L solution, transfer 1000 mL DI water into a suitable reservoir. Add 6.81 g of KH2PO4, and then adjust pH to 3.1 with H3PO4. Mix well. Degas solution thoroughly before use. [table]
# [2] = Stability of tazarotene with BP-CB or BPO in polyacrylic acid gel, stored at 30° C., HPLC peak area; format: physicochemical; conditions: after 834 h at 30° C.; with tazarotene in polyacrylic acid (PAA) gel
# Protocol: These stability studies are set up to examine BP-CB/BPO with various APIs in aqueous gel formulations. In one study, tazarotene is used as the API. Tazarotene and BP-CB or BPO are placed into a polyacrylic acid (PAA) gel in vials and stored at 30° C. The vials are analyzed by HPLC and the area from the tazarotene peak is monitored. […] These values are compared on the area from the To results.
# (§1) BPO Study—Polyacrylic acid gel is prepared by stirring polyacrylic acid (2.5 g) in deionized water (100 mL) at 50° C. for 2 h. The gel is allowed to cool to ambient temperature. The gel (500 mg) is weighed out into each of the 4-dram vials. Into the same vials is placed hydrous benzoyl peroxide (390 mg, 74.6% by wt) and tazarotene (375 mg). The contents are mixed thoroughly then the vials are stored at 30° C.
# as §1, with “BP-CB” for “BPO”, “BP-CB (447” for “hydrous benzoyl peroxide (390”, “65% BPO” for “74.6%”
# Analysis—At certain time points, the vials are analyzed by HPLC. […] For To, a vial is removed and analyzed before the samples are heated to 30° C. […]
# [3] = cited from earlier work
Compound,decrease of HPLC area of the clindamycin hydrochloride peak in comparison to T0 [1] [%],decrease of HPLC area of the tazarotene peak compared to T0 [2] [%],pKa [3]
"O=C(OOC(=O)c1ccccc1)c1ccccc1 [BPO, benzoyl peroxide]",87.0,88,
CC1=C(/C=C/C(C)=C/C=C/C(C)=C/C(=O)O)C(C)(C)CCC1 [tretinoin],,,3.8
